Data as given in patent publication US12544378B2, “Solid pharmaceutical formulation of PARP inhibitors and use thereof” (IMPACT THERAPEUTICS (SHANGHAI), INC, priority 2015, dated 2026).

Experiments:
[1] = Bioavailability after oral administration of the crystalline compound; conditions: mouse, in vivo, mice, simple mixture of crystalline compound with surfactants (Tween 80) and emulsifiers (methylcellulose)
[2] = Water solubility; format: physicochemical
[3] = Effects of vehicle formulas on drug absorption, mouse pharmacokinetics (PK) method (Example 8); format: in vivo; conditions: ICR mice, gavage, solution in DMSO:10% HP-β-CD PBS=1:9
Description: Measurement of the Effects of 5-fluoro-1-(4-fluoro-3-(4-(pyrimidin-2-yl)piperazine-1-carbonyl)benzyl)quinazoline-2,4(1H,3H)-dione Vehicle Formulas on the Drug Absorption Using a Mouse Pharmacokinetics (PK) Method
5-Fluoro-1-(4-fluoro-3-(4-(pyrimidin-2-yl)piperazine-1-carbonyl)benzyl)quinazoline-2,4(1H,3H)-dione in different vehicle formulas at the same dosage was administered to ICR mice by gavage. The blood was sampled at 30 min after gavage, the blood concentrations were measured by LCMS method, and the effects on the drug absorption of different vehicle formulas was made a comparison. The blood concentrations were shown as the table below: […]

[4] = Absorption of amorphous solid dispersion HP-55 (1:3), rat pharmacokinetics (PK) method (Example 12); format: in vivo; conditions: whole blood, Wistar rats, IV, 1 mg/kg, solution in DMSO:10% HP-β-CD PBS (1:9)
Description: Measurement of the Absorption Ratio of the Amorphous Solid Dispersions of 5-fluoro-1-(4-fluoro-3-(4-(pyrimidin-2-yl)piperazine-1-carbonyl)benzyl)quinazoline-2,4(1H,3H)-dione:HP-55 (1:3) Using a Rat Pharmacokinetics (PK) Method
(§1) The solution of 5-fluoro-1-(4-fluoro-3-(4-(pyrimidin-2-yl)piperazine-1-carbonyl)benzyl)quinazoline-2,4(1H,3H)-dione in DMSO:10% HP-β-CD PBS (1:9) was administered to Wistar rats at 1 mg/kg by IV. And the homogeneous suspension of the amorphous solid dispersion of 5-fluoro-1-(4-fluoro-3-(4-(pyrimidin-2-yl)piperazine-1-carbonyl)benzyl)quinazoline-2,4(1H,3H)-dione:HP-55 (1:3) in 0.5% MC/water was administered to Wistar rats at 10 mg/kg by IG. The blood was sampled at a certain time after administration. The blood concentrations were measured by LCMS method, and the oral absorption was measured by a rat pharmacokinetics (PK) method.

[5] = Absorption of amorphous solid dispersion HP-55 (1:3), mouse pharmacokinetics (PK) method (Example 11); format: in vivo; conditions: whole blood, mice, IV, 1 mg/kg, solution in DMSO:10% HP-β-CD PBS (1:9)
Description: Measurement of the Absorption Ratio of the Amorphous Solid Dispersions of 5-fluoro-1-(4-fluoro-3-(4-(pyrimidin-2-yl)piperazine-1-carbonyl)benzyl)quinazoline-2,4(1H,3H)-dione:HP-55 (1:3) Using a Mouse Pharmacokinetics (PK) Method
as §1, with “to mice” for “to Wistar rats”, “a mouse” for “a rat”

- bioavailability [1]: < 5%
- water solubility (in words) [2]: very low
- oral absorption rate [3]: 48%
- AUC(0-inf) ([4]; female): 1290 ng·h/mL
- AUC(0-t) ([4]; female): 1250 ng·h/mL
- Cmax ([4]; female): 618 ng/mL
- half-life ([4]; female): 304 min
- AUC(0-inf) ([4]; male): 365 ng·h/mL
- AUC(0-t) ([4]; male): 363 ng·h/mL
- Cmax ([4]; male): 896 ng/mL
- half-life ([4]; male): 51 min
- AUC(0-inf) [5]: 997 ng·h/mL
- AUC(0-t) [5]: 991 ng·h/mL
- Cmax [5]: 1920 ng/mL
- half-life [5]: 32.7 min
SMILES: O=C(c1cc(Cn2c(=O)[nH]c(=O)c3c(F)cccc32)ccc1F)N1CCN(c2ncccn2)CC1 [5-fluoro-1-(4-fluoro-3-(4-(pyrimidin-2-yl)piperazine-1-carbonyl)benzyl)quinazoline-2,4(1H,3H)-dione]
